Measurements from patent US7205300B2, “Aryl fused azapolycyclic compounds” (Pfizer Inc, priority 1997, dated 2007).

melting point | Structure (SMILES)
189 to 192 °C | Cl.Nc1ccc2c(c1)C1CNCC2C1 (stereo not shown)
275 to 277 °C | Cl.FC(F)(F)c1cccc2c1C1CNCC2C1 (stereo not shown)
129 to 130 °C | Cc1nc2cc3c(cc2n1CC(C)C)C1CNCC3C1.Cl (stereo not shown)
268 to 273 °C | Cl.N#Cc1ccc2c(c1)C1CNCC2C1 (stereo not shown)
> 300 °C (dec.) | Cc1ccc2cc3c(cc2n1)C1CNCC3C1.Cl (stereo not shown)
301 to 303 °C | Cl.Fc1cc2c(cc1F)C1CNCC2C1
288 to 291 °C (dec.) | CCc1cnc2cc3c(cc2c1)C1CNCC3C1.Cl (stereo not shown)
225 to 230 °C | Cc1nc2cc3c(cc2n1C)C1CNCC3C1.Cl (stereo not shown)
225 to 230 °C | CC(=O)Nc1ccc2c(c1)C1CNCC2C1.Cl (stereo not shown)
260 °C (dec.) | Cl.c1cnc2cc3c(cc2c1)C1CNCC3C1 (stereo not shown)
283 to 291 °C | Cl.Clc1cc2c(cc1Cl)C1CNCC2C1
> 250 °C | Cl.c1nc2cc3c(cc2[nH]1)C1CNCC3C1 (stereo not shown)
300 °C (dec.) | Cl.O=c1ccc2cc3c(cc2[nH]1)C1CNCC3C1 (stereo not shown)
> 250 °C | Cc1nc2cc3c(cc2o1)C1CNCC3C1.Cl (stereo not shown)
210 to 213 °C | Cl.c1ccc(-n2cnc3cc4c(cc32)C2CNCC4C2)cc1 (stereo not shown)
> 250 °C | Cc1nc2cc3c(cc2n1-c1ccccc1)C1CNCC3C1.Cl (stereo not shown)
253 to 255 °C | Cl.Oc1cccc2c1C1CNCC2C1 (stereo not shown)
198 to 202 °C | CC(=O)c1ccc2c(c1)C1CNCC2C1.Cl (stereo not shown)
269 to 271 °C | Cl.Fc1cccc2c1C1CNCC2C1 (stereo not shown)
> 250 °C | CN1CC2CC(C1)c1cc3nccnc3cc12.Cl
125 to 130 °C | Cl.O=C(Nc1cc2c(cc1O)C1CNCC2C1)c1ccccc1F (stereo not shown)
265 to 270 °C | Cl.O=[N+]([O-])c1ccc2c(c1)C1CNCC2C1 (stereo not shown)
183 to 184 °C | Cc1nc2cc3c(cc2s1)C1CNCC3C1.Cl (stereo not shown)
249 to 251 °C | CC(C)c1nc2cc3c(cc2o1)C1CNCC3C1.Cl (stereo not shown)
262 to 265 °C | Cl.c1ccc(-c2cccc3c2C2CNCC3C2)cc1 (stereo not shown)
260 to 262 °C | Cl.Fc1ccc2c(c1)C1CNCC2C1 (stereo not shown)
254 to 255 °C | Cc1ccc2c(c1)C1CNCC2C1.Cl (stereo not shown)
147 to 150 °C | CC(C)Cn1cnc2cc3c(cc21)C1CNCC3C1.Cl (stereo not shown)
